Key:
[1] = tested on: patients with asymptomatic moderate or severe carotid artery stenosis/occlusion; assay: Montreal Cognitive Assessment (MoCA), change during observation period; assay type: in vivo, human; settings: for β, resveratrol intake vs MoCA visuospatial cognitive function/executive function change: 79 patients, linear regression
Description: (§1) Subjects were patients with asymptomatic moderate or severe carotid artery stenosis/occlusion who visited the National Cerebral and Cardiovascular Center in Japan from July 2020 to August 2021 and who were taking or not taking trans-resveratrol in an amount of 30 mg/day. The inclusion criteria were as follows: (1) patients with asymptomatic moderate or severe carotid artery stenosis/occlusion who presented with a peak systolic velocity of 130 cm/s or more at a stenotic lesion on carotid ultrasonography (corresponding to a stenotic diameter of >50%) and who underwent test (2) and/or (3); (2) patients who underwent cognitive function tests (Alzheimer's Disease Assessment Scale-Cognitive subscale 13 (ADAS-Cog) and Montreal Cognitive Assessment (MoCA)) longitudinally twice; (3) patients who also underwent ^15O-gas positron emission tomography (PET) longitudinally twice in a similar manner. The primary outcome is a comparison of the amounts of change in ADAS-Cog during the observation period (differential analysis). The secondary outcomes are (1) a comparison of the amounts of change in MoCA during the observation period (differential analysis), and (2) a comparison of the amounts of change in cerebral blood flow on ^15O -gas PET (differential analysis). This study was initiated after receiving approval from the Research Ethics Review Committee of the National Cerebral and Cardiovascular Center (Research Project Number: R20113). In Example 1 above, the 82 subject patients included patients who were tested for both change in cognitive function and change in cerebral blood flow, as well as patients who were tested for only either change in cognitive function or change in cerebral blood flow. Therefore, based on the above results, the same analysis as in Example 1 was performed again on 79 patients who were tested for both change in cognitive function and change in cerebral blood flow from among the 82 patients. […] The baseline mean total MoCA scores were 23.6±3.6 in the non-RES group and 23.7±3.6 in the RES group. Further, the mean total ADAS-Cog scores were 14.6±5.4 in the non-RES group and 15.8±7.2 in the RES group. The mean observation periods were 244.8±86.9 and 221.2±61.9 days, respectively (p=0.18). The baseline scores were under the category of mild cognitive impairment (MCI) (Table 4). For the 79 patients, the amount of change in MoCA and ADAS-Cog scores was examined to investigate changes in cognitive function associated with administration of resveratrol. […] According to ADAS-Cog, a significant association was found with cognitive function improvement in the RES group in terms of delayed recall (0.5±1.6 VS. −0.9±1.8; p=0.001), memory domain (0.4±3.3 VS. −1.6±3.1; p=0.007), and total score (0.5±3.7 vs. −1.5±3.4; p=0.019). Therefore, after adjusting for age, gender, hypertension, diabetes, dyslipidemia, and coronary artery disease, a multivariate linear regression model analysis was performed. Resveratrol intake was an independent predictor of improvement in spatial cognitive and executive functions (β=0.26, 95% confidence interval [CI]: 0.062-1.15, p=0.03) and memory (memory domain: β=−0.26, 95% CI: −3.23 to −0.15, p=0.032; delayed recall: β=−0.37, 95% CI: −2.16 to −0.54, p=0.001) (Table 5). Accordingly, resveratrol may have contributed to improvement in the visuospatial cognitive function, executive function, and memory.

[2] = tested on: patients with asymptomatic moderate or severe carotid artery stenosis/occlusion; assay: Alzheimer's Disease Assessment Scale-Cognitive subscale 13 (ADAS-Cog), change during observation period; assay type: in vivo, human; settings: for β, resveratrol intake vs ADAS-Cog delayed recall change / β, resveratrol intake vs ADAS-Cog memory domain change / β, resveratrol intake vs ADAS-Cog total change: 79 patients, linear regression
Description: as §1

[3] = tested on: patients with asymptomatic moderate or severe carotid artery stenosis/occlusion; assay: 15O-gas PET: cerebral blood flow, cerebral oxygen metabolic rate, cerebral oxygen uptake rate; assay type: in vivo, human; parameters: Cerebral blood flow change: entire right hemisphere / Cerebral blood flow change: entire left hemisphere / Cerebral blood flow change: right frontal lobe / Cerebral blood flow change: right callosomarginal artery area / Cerebral blood flow change: left callosomarginal artery area / Cerebral blood flow change: left lenticular nucleus / Cerebral blood flow change: left thalamus: unit not given here; settings: for β, resveratrol intake vs cerebral blood flow change: Frontal circulation area / β, resveratrol intake vs cerebral blood flow change: Left callosomarginal artery area / β, resveratrol intake vs cerebral blood flow change: Left lenticular nucleus / β, resveratrol intake vs cerebral blood flow change: Right callosomarginal artery area / β, resveratrol intake vs cerebral blood flow change: Right precentral artery / β, resveratrol intake vs cerebral blood flow change: Thalamus, Left / β, resveratrol intake vs cerebral blood flow change: Thalamus, Right: 79 patients, linear regression
Description: Subjects were patients with asymptomatic moderate or severe carotid artery stenosis/occlusion who visited the National Cerebral and Cardiovascular Center in Japan from July 2020 to August 2021 and who were taking or not taking trans-resveratrol in an amount of 30 mg/day. The inclusion criteria were as follows: (1) patients with asymptomatic moderate or severe carotid artery stenosis/occlusion who presented with a peak systolic velocity of 130 cm/s or more at a stenotic lesion on carotid ultrasonography (corresponding to a stenotic diameter of >50%) and who underwent test (2) and/or (3); (2) patients who underwent cognitive function tests (Alzheimer's Disease Assessment Scale-Cognitive subscale 13 (ADAS-Cog) and Montreal Cognitive Assessment (MoCA)) longitudinally twice; (3) patients who also underwent ^15O-gas positron emission tomography (PET) longitudinally twice in a similar manner. The primary outcome is a comparison of the amounts of change in ADAS-Cog during the observation period (differential analysis). The secondary outcomes are (1) a comparison of the amounts of change in MoCA during the observation period (differential analysis), and (2) a comparison of the amounts of change in cerebral blood flow on ^15O -gas PET (differential analysis). This study was initiated after receiving approval from the Research Ethics Review Committee of the National Cerebral and Cardiovascular Center (Research Project Number: R20113). All PET images were anatomically standardized using linear and nonlinear transformations with SPM2 to ensure that the brain images of all patients had the same anatomical format, and the cerebral blood flow was quantified using 3DSRT (PDRadiopharma Inc., Tokyo, Japan). Each hemisphere was divided into twelve ROI segments, grouped according to the arterial supply: callosomarginal artery area, pericallosal artery area, precentral artery area, central artery area, angular artery area, parietal lobe, temporal lobe, occipital lobe, hippocampus, lenticular nucleus, thalamus, and cerebellum. The frontal circulation areas were defined to be the callosomarginal artery area, pericallosal artery area, precentral artery area, and central artery area. In quantifying the relative cerebral blood flow, counts under each ROI were normalized to an average cerebral blood flow count within the bilateral cerebellum. […] Using 3D-SRT (FUJIFILM RI Pharma, Tokyo, Japan), the difference in the amount of change was analyzed (for the RES group, the difference between the cerebral blood flow before RES administration (relative to cerebellum) and the cerebral blood flow after RES administration (relative to cerebellum); for the non-RES group, the cerebral blood flow at intervals of 6 months to 1 year (relative to cerebellum)). […] In Example 1 above, the 82 subject patients included patients who were tested for both change in cognitive function and change in cerebral blood flow, as well as patients who were tested for only either change in cognitive function or change in cerebral blood flow. Therefore, based on the above results, the same analysis as in Example 1 was performed again on 79 patients who were tested for both change in cognitive function and change in cerebral blood flow from among the 82 patients. To identify the reason associated with significant improvements in the visuospatial cognitive function, executive function, and memory in the RES group, cerebral blood flow was measured. Initially, the cerebral blood flow change in each entire hemisphere was analyzed. […] To examine the changes in detail, the cerebral blood flow was analyzed in terms of the frontal lobe, basal ganglia, and thalamus, which govern the visuospatial cognitive and executive functions, and memory. Longitudinally, long-term resveratrol intake was associated with a significant increase in cerebral blood flow in the right frontal lobe (non-RES group: 0.001±0.037, RES group: 0.019±0.033; p=0.027)). […]

[4] = tested on: patients with asymptomatic moderate or severe carotid artery stenosis/occlusion; assay: Adverse events during long-term resveratrol intake; assay type: in vivo, human; settings: Example 2, 30 mg/day
Text: The baseline mean total MoCA scores were 23.6±3.6 in the non-RES group and 23.7±3.6 in the RES group. Further, the mean total ADAS-Cog scores were 14.6±5.4 in the non-RES group and 15.8±7.2 in the RES group. The mean observation periods were 244.8±86.9 and 221.2±61.9 days, respectively (p=0.18). The baseline scores were under the category of mild cognitive impairment (MCI) (Table 4).
To identify the reason associated with significant improvements in the visuospatial cognitive function, executive function, and memory in the RES group, cerebral blood flow was measured. Initially, the cerebral blood flow change in each entire hemisphere was analyzed. […] To examine the changes in detail, the cerebral blood flow was analyzed in terms of the frontal lobe, basal ganglia, and thalamus, which govern the visuospatial cognitive and executive functions, and memory. Longitudinally, long-term resveratrol intake was associated with a significant increase in cerebral blood flow in the right frontal lobe (non-RES group: 0.001±0.037, RES group: 0.019±0.033; p=0.027)). […] Therefore, long-term resveratrol intake may contribute not only to improvement of cognitive function but also to increase in cerebral blood flow.

[5] = tested on: human Alzheimer's patients; settings: 500 mg of resveratrol; NPL 5; cited from earlier work
[6] = tested on: carotid artery occlusion model mice; settings: NPL 3; cited from earlier work
[7] = Example 1, RES group 37 of 82 patients, 30 mg/day
[8] = Example 2, RES group n = 36 of 79 patients, 30 mg/day
[9] = Example 2, multivariate analysis
[10] = Example 1, relative to cerebellum, before vs after RES administration, 30 mg/day
[11] = Example 2, multivariable analysis
[12] = Example 2, univariable analysis

SMILES: Oc1ccc(/C=C/c2cc(O)cc(O)c2)cc1 [resveratrol, 3,4′, 5-trihydroxy-trans-stilbene]
- Amount of change in MoCA: Executive function/spatial cognitive function [1, 7]: 0.35 ± 1.0
- β, resveratrol intake vs MoCA visuospatial cognitive function/executive function change ([1]; Example 2, multivariate analysis adjusted for age, gender, hypertension, diabetes, dyslipidemia, coronary artery disease): 0.26
- β, resveratrol intake vs MoCA visuospatial cognitive function/executive function change ([1]; Example 2, univariate analysis): 0.257
- Amount of change in MoCA: visuospatial cognitive and executive functions [1, 8]: 0.4±0.9
- Amount of change in total MoCA score [1, 8]: 0.4±2.6
- Amount of change in ADAS-Cog: Total [2, 7]: −1.48 ± 3.4
- Amount of change in ADAS-Cog: delayed recall [2, 7]: −0.89 ± 1.7
- Amount of change in ADAS-Cog: memory domain [2, 7]: −1.65 ± 3.0
- β, resveratrol intake vs ADAS-Cog delayed recall change [2, 9]: −0.37
- β, resveratrol intake vs ADAS-Cog memory domain change [2, 9]: −0.26
- β, resveratrol intake vs ADAS-Cog total change [2, 9]: −0.18
- β, resveratrol intake vs ADAS-Cog delayed recall change ([2]; Example 2, univariate analysis): −0.37
- β, resveratrol intake vs ADAS-Cog memory domain change ([2]; Example 2, univariate analysis): −0.30
- β, resveratrol intake vs ADAS-Cog total change ([2]; Example 2, univariate analysis): −0.26
- Amount of change in ADAS-Cog: delayed recall [2, 8]: −0.9±1.8
- Amount of change in ADAS-Cog: memory domain [2, 8]: −1.6±3.1
- Amount of change in ADAS-Cog: total score [2, 8]: −1.5±3.4
- Cerebral oxygen uptake rate ([3]; Example 1, 30 mg/day): no association
- Cerebral oxygen metabolic rate ([3]; Example 1, all areas, 30 mg/day): tendency for an association between RES intake and an increase in the cerebral oxygen metabolic rate
- Cerebral blood flow in other areas ([3]; Example 1, areas other than those of Table 3, relative to cerebellum): tendency for an association between RES intake and an increase in the cerebral blood flow
- Amount of change in cerebral blood flow: Left callosomarginal artery area [3, 10]: 0.171 ± 0.42
- Amount of change in cerebral blood flow: Left putamen [3, 10]: 0.19 ± 0.57
- Amount of change in cerebral blood flow: Left thalamus [3, 10]: 0.449 ± 0.90
- Amount of change in cerebral blood flow: Right callosomarginal artery area [3, 10]: 0.179 ± 0.34
- Amount of change in cerebral blood flow: Right frontal lobe [3, 10]: 0.215 ± 0.35
- Amount of change in cerebral blood flow: Right thalamus [3, 10]: 0.393 ± 0.85
- β, resveratrol intake vs cerebral blood flow change: Frontal circulation area [3, 11]: 0.25
- β, resveratrol intake vs cerebral blood flow change: Left callosomarginal artery area [3, 11]: 0.27
- β, resveratrol intake vs cerebral blood flow change: Left lenticular nucleus [3, 11]: 0.31
- β, resveratrol intake vs cerebral blood flow change: Right callosomarginal artery area [3, 11]: 0.29
- β, resveratrol intake vs cerebral blood flow change: Right precentral artery [3, 11]: 0.25
- β, resveratrol intake vs cerebral blood flow change: Thalamus, Left [3, 11]: 0.29
- β, resveratrol intake vs cerebral blood flow change: Thalamus, Right [3, 11]: 0.23
- β, resveratrol intake vs cerebral blood flow change: Frontal circulation area [3, 12]: 0.25
- β, resveratrol intake vs cerebral blood flow change: Left callosomarginal artery area [3, 12]: 0.24
- β, resveratrol intake vs cerebral blood flow change: Left lenticular nucleus [3, 12]: 0.29
- β, resveratrol intake vs cerebral blood flow change: Right callosomarginal artery area [3, 12]: 0.28
- β, resveratrol intake vs cerebral blood flow change: Right precentral artery [3, 12]: 0.25
- β, resveratrol intake vs cerebral blood flow change: Thalamus, Left [3, 12]: 0.29
- β, resveratrol intake vs cerebral blood flow change: Thalamus, Right [3, 12]: 0.24
- Cerebral blood flow change: entire left hemisphere [3, 8]: 0.014±0.031
- Cerebral blood flow change: entire right hemisphere [3, 8]: 0.016±0.032
- Cerebral blood flow change: left callosomarginal artery area [3, 8]: 0.017±0.042
- Cerebral blood flow change: left lenticular nucleus [3, 8]: 0.033±0.06
- Cerebral blood flow change: left thalamus [3, 8]: 0.045±0.090
- Cerebral blood flow change: right callosomarginal artery area [3, 8]: 0.018±0.034
- Cerebral blood flow change: right frontal lobe [3, 8]: 0.019±0.033
- Cerebral blood flow change: right precentral artery area [3, 8]: 0.021±0.035
- Cerebral blood flow change: right thalamus [3, 8]: 0.039±0.85
- Adverse events [4]: no adverse events observed
- Effect in human Alzheimer's patients [5]: no effect was observed
- Autophagy [6]: activation of autophagy
- Cognitive function [6]: improvement in cognitive function
- Oxidative stress-induced nerve damage [6]: reduced oxidative stress-induced nerve damage
